Patent US9265747B2, “Platinum (IV) complexes for use in dual mode pharmaceutical therapy” (Massachusetts Institute of Technology, priority 2008, dated 2016)
pIC50: −log10 of the molar value.

What was measured:
[1] = Cyclic voltammetry, Pt(IV)/Pt(II) couple; type: physicochemical
Source text: Materials and Measurements. The complexes cis-[Pt(NH3)2Cl2], and c, c, t-[Pt(NH3)2Cl2(OH)2] were synthesized as previously described. Distilled water was purified by passage through a Millipore Milli-Q Biocel water purification system (18.2 MΩ) with a 0.22 μm filter. For the detection of cisplatin 1,2-d(GpG) intrastrand adduct, a monoclonal adduct specific antibody R-C18 was used which was a gift from Anti-cytochrome c (Ab-1) sheep polyclonal antibody was procured from Calbiochem. For AIF detection, rabbit polyclonal IgG antibody was used from Santa Cruz Biotechnology, Inc. Alexa Fluor® 488 labeled secondary antibody donkey anti-(sheep IgG) was obtained from Invitrogen for cytochrome c detection. For AIF detection, Alexa Fluor® 546 labeled secondary antibody goat anti-(rabbit IgG) was purchased from Invitrogen. […] JC-1 (5,5′, 6,6′-tetrachloro-1,1′,3,3′ tetraethylbenzimidazolylcarbocyanine iodide) was obtained from Cayman Chemicals. ^1H NMR and ^195Pt NMR spectra were recorded on a Bruker AVANCE-400 NMR spectrometer with a Spectro Spin superconducting magnet in the Massachusetts Institute of Technology Department of Chemistry Instrumentation Facility (MIT DCIF). […] Fluorescence imaging studies were performed with an Axiovert 200M inverted epifluorescence microscope (Zeiss, Thornwood, N.Y.) equipped with an EM-CCD digital camera C9100 (Hamamatsu, Japan). […]

[2] = system: HeLa, human cervical cancer; test: MTT assay, HeLa cells; type: cell-based; settings: 72 hours
Description: Cell Line and Cell Culture. Healthy normal fibroblast GM61869, human cancer NTera-2, human cervical cancer HeLa, human osteosarcoma cell line U2OS were obtained from the ATCC. Cells were incubated at 37° C. in 5% CO2 and grown in DMEM medium supplemented with 10% fetal bovine serum and 1% penicillin/streptomycin. Cells were passed every 3 to 4 days and restarted from the frozen stock upon reaching pass number 20.
(§1) MTT Assay. Cytotoxic behavior of compound 1, DCA and cis-DDP were evaluated using the MTT assay. Solutions of the platinum complexes were freshly prepared in sterile PBS before use and quantitated by atomic absorption spectroscopy. Cells were seeded on a 96 well plate (1000 cells per well for NTera-2, U2OS, HeLa; 1400 per well for normal fibriblast; 500 per well for 7B, 10B, 175F and 150×2) in 100 μL DMEM media and incubated for 24 hours. The cells were then treated with compound 1, DCA or cis-DDP, separately at varying concentrations and incubated for 72 hours at 37° C. The cells were then treated with 20 μL of 3-(4,5-dimethylthiazol-2-yl)-2,5-diphenyltetrazolium bromide (MTT) (5 mg/mL in PBS) and incubated for 5 h. The medium was removed, the cells were lysed by adding 100 μl, of DMSO, and the absorbance of the purple formazan was recorded at 550 nm using a BioTek Synergy HT multi-detection microplate plate reader. Each well was performed in triplicate in three independent experiments for each cell line.

HeLa = test: Annexin-V flow cytometry, HeLa cells; type: cell-based, human; settings: 10 and 20 μM, 72 h
Description: (§2) In order to quantify mitaplatin-induced apoptosis in cancer cells, an Annexin-V was performed and analyzed using flow cytometry. With this analysis, the percentage of apoptotic cells found was determined at 72 h after exposure of mitaplatin and cisplatin.

[3] = system: MCF-7, human breast adenocarcinoma; test: MTT assay, MCF-7 cells; type: cell-based; settings: 72 hours
Description: [The procedure below names another cell line; the source lists this cell line under the same test.] as §1

U2OS = test: Annexin-V flow cytometry, U2OS cells; type: cell-based, human; settings: 10 and 20 μM, 72 h
Description: as §2

[4] = system: A2780/CP70, cisplatin-resistant human ovarian carcinoma; test: MTT assay, A2780/CP70 cells; type: cell-based; settings: A2780/CP70 cisplatin resistant cells, 72 h
Description: A more negative membrane potential might promote translocation of the active, cationic form of cisplatin from the cytoplasm to mitochondria, thus diminishing platination of nuclear DNA. […] Thus, a pair of cisplatin sensitive A2780 and resistant A2780/CP70 ovarian cancer cells were studied (Table 1 and FIG. 10). […] (▴) with (A) cisplatin sensitive A2780 cells and (B) cisplatin resistant A2780/CP70 cells, after 72 h as determined by the MTT assay. The controls were cisplatin and c,c,t-[Pt(NH3)2Cl2(O2CCH3)2]. […] Results for the A2780/CP70 cells indicate that DCA plays a role, in this embodiment, in making cisplatin-resistant cells susceptible towards mitaplatin treatment.
as §1

For `[NH2][Pt]([NH2])([Cl])([Cl])([O]C(=O)C(Cl)Cl)[O]C(=O)C(Cl)Cl` [Mitaplatin, c,c,t-[Pt(NH3)2Cl2(O2CCHCl2)2]], the “reduction potential, Pt(IV)/Pt(II) couple” value ([1]; pH 6.0, 25° C.) was −0.152 V vs Ag/AgCl, the “reduction potential, Pt(IV)/Pt(II) couple” value ([1]; pH 7.4, irreversible cyclic voltammetric response, 25° C.) was ~−0.173 V vs Ag/AgCl and the pIC50 [2] was 5.70. The “apoptosis (Annexin-V)” value (HeLa) was “Apoptosis was detected”, the pIC50 [3] was 4.74 and the “apoptosis (Annexin-V)” value (U2OS) was “Apoptosis was detected”. It also gave a pIC50 [4] of 5.48.
